# Measurements as given in ChEMBL document CHEMBL4765254, “Design, synthesis and biological evaluation of 1-alkyl-5/6-(5-oxo-4,5-dihydro-1,2,4-oxadiazol-3-yl)-1H-indole-3-carbonitriles as novel xanthine oxidase inhibitors” (Eur J Med Chem, 2020).
# Activity calls are given as the source filed them. The calls are words filed in the database; no cut-off is given here.
# Test system: Rattus norvegicus
# Experiment: Hypouricemic activity in Sprague-Dawley rat model of Potassium oxonate-induced acute hyperuricemia assessed as decrease in serum urate level at 10 mg/kg, ig administered 1 hr after potassium oxonate treatment and measured after 8 hrs
# Format: functional, organism-based
# Details: not given
row,SMILES,Activity
1,N#Cc1cn(C2CCCC2)c2ccc(-c3noc(=O)[nH]3)cc12,Active

# Test system: Rattus norvegicus
# Experiment: Hypouricemic activity in Sprague-Dawley rat model of Potassium oxonate-induced acute hyperuricemia assessed as decrease in serum uric acid level at 10 mg/kg, ig administered 1 hr after potassium oxonate treatment and measured after 3 hrs relative to control
# Format: functional
# Parameters: scale not given: the % may be the effect or the level left
# Details: time 4 hrs
row,SMILES,Activity [%]
1,N#Cc1cn(C2CCCC2)c2ccc(-c3noc(=O)[nH]3)cc12,20.8

# Target: T1, Xanthine dehydrogenase/oxidase (Bos taurus, UniProt P80457)
# Experiment: Mixed type inhibition of bovine xanthine oxidase assessed as inhibitory constant using xanthine as substrate preincubated for 25 mins followed by substrate addition measured at first 2 mins by spectrophotometry based Lineweaver-Burk plot analysis
# Details: not given
# T1 sequence (P80457 whole entry): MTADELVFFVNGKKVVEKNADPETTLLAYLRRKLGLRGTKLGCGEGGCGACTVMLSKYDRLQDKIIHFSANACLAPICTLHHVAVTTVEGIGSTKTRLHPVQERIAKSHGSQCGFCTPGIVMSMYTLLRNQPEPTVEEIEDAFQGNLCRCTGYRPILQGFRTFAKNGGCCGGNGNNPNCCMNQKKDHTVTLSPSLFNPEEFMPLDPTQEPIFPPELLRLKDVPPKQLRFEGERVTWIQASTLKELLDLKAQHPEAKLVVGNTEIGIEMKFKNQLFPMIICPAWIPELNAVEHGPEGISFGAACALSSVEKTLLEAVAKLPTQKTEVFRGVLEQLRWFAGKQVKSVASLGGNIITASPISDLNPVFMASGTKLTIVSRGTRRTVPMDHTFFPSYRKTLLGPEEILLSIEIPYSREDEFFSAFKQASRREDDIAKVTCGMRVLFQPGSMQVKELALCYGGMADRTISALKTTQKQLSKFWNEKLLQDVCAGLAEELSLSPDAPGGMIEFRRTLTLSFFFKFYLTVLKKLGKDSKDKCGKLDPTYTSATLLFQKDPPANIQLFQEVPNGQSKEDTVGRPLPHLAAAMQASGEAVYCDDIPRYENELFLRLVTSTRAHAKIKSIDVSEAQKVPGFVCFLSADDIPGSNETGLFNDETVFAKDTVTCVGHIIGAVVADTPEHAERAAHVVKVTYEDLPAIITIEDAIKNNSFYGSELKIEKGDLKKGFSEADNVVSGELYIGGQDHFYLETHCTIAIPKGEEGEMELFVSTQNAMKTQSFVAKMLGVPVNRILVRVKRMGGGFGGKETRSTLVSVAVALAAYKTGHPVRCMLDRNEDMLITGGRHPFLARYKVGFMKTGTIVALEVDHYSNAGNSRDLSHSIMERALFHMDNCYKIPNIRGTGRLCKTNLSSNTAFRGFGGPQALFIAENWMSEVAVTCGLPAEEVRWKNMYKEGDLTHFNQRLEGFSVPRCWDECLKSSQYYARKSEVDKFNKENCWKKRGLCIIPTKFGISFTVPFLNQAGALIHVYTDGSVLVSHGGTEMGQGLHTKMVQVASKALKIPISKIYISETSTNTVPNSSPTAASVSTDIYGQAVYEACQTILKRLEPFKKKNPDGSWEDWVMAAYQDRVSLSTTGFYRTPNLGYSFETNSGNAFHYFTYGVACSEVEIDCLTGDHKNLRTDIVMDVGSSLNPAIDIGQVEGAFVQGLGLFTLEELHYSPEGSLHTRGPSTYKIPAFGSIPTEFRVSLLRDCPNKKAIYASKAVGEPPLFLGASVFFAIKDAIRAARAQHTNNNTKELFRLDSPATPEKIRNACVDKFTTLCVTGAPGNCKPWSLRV
row,Ki [µM],SMILES
1,0.138,N#Cc1cn(C2CCCC2)c2ccc(-c3noc(=O)[nH]3)cc12

# Target: T1, Xanthine dehydrogenase/oxidase
# Experiment: Inhibition of bovine xanthine oxidase assessed as reduction in uric acid formation using xanthine as substrate preincubated for 25 mins followed by substrate addition measured at first 2 mins by spectrophotometric analysis
# Details: not given
row,IC50 [µM],SMILES
1,0.88,N#Cc1cn(CC2CC2)c2ccc(-c3noc(=O)[nH]3)cc12
2,6.56,CC(C)CCn1cc(C#N)c2ccc(-c3noc(=O)[nH]3)cc21
3,0.82,N#Cc1cn(C2CCCC2)c2cc(-c3noc(=O)[nH]3)ccc12
4,1.72,N#Cc1cn(Cc2ccccc2)c2ccc(-c3noc(=O)[nH]3)cc12
5,2.4,N#Cc1cn(Cc2ccc(Cl)cc2)c2ccc(-c3noc(=O)[nH]3)cc12
6,2.16,Cc1cccc(Cn2cc(C#N)c3cc(-c4noc(=O)[nH]4)ccc32)c1
7,1.02,COc1ccc(Cn2cc(C#N)c3cc(-c4noc(=O)[nH]4)ccc32)cc1
8,1.24,CC(C)=CCn1cc(C#N)c2cc(-c3noc(=O)[nH]3)ccc21
9,4.13,N#Cc1c[nH]c2ccc(-c3noc(=O)[nH]3)cc12
10,1.14,Cc1ccc(Cn2cc(C#N)c3cc(-c4noc(=O)[nH]4)ccc32)cc1
11,0.41,CC(C)n1cc(C#N)c2cc(-c3noc(=O)[nH]3)ccc21
12,1.44,CC(C)(C)c1ccc(Cn2cc(C#N)c3cc(-c4noc(=O)[nH]4)ccc32)cc1
13,5.41,Cn1cc(C#N)c2cc(-c3noc(=O)[nH]3)ccc21
14,1.02,CC(C)CCn1cc(C#N)c2cc(-c3noc(=O)[nH]3)ccc21
15,2.6,N#Cc1cn(Cc2cccc(Br)c2)c2ccc(-c3noc(=O)[nH]3)cc12
16,1.7,COc1cccc(Cn2cc(C#N)c3cc(-c4noc(=O)[nH]4)ccc32)c1
17,2.93,N#Cc1cn(Cc2cccc(Cl)c2)c2ccc(-c3noc(=O)[nH]3)cc12
18,1.84,Cc1ccc(Cn2cc(C#N)c3ccc(-c4noc(=O)[nH]4)cc32)cc1
19,3.6,N#Cc1cn(Cc2cccc(F)c2)c2ccc(-c3noc(=O)[nH]3)cc12
20,2.07,N#Cc1cn(Cc2ccc(Br)cc2)c2ccc(-c3noc(=O)[nH]3)cc12
21,1.8,CC(C)n1cc(C#N)c2ccc(-c3noc(=O)[nH]3)cc21
22,1.71,N#Cc1cn(Cc2ccc(F)cc2)c2ccc(-c3noc(=O)[nH]3)cc12
23,2.86,N#Cc1cn(CC2CCCCC2)c2ccc(-c3noc(=O)[nH]3)cc12
24,1.09,CC(C)Cn1cc(C#N)c2cc(-c3noc(=O)[nH]3)ccc21

# Test system: Rattus norvegicus
# Experiment: Hypouricemic activity in Sprague-Dawley rat model of Potassium oxonate-induced acute hyperuricemia assessed as percentage decrease in serum uric acid AUC (1 to 8 hrs) at 10 mg/kg, ig administered 1 hr after potassium oxonate treatment and measured after 8 hrs relative to control
# Format: functional
# Parameters: scale not given: the % may be the effect or the level left
# Details: not given
row,SMILES,Activity [%]
1,N#Cc1cn(C2CCCC2)c2ccc(-c3noc(=O)[nH]3)cc12,12.8

# Target: T1, Xanthine dehydrogenase/oxidase
# Experiment: Inhibition of bovine xanthine oxidase assessed as reduction in uric acid formation at 10 uM using xanthine as substrate preincubated for 25 mins followed by substrate addition measured at first 2 mins by spectrophotometric analysis relative to control
# Details: cattle, time 27 min
row,inhibition at 10 µM [%],SMILES
1,< 50,CC(C)n1ccc2cc(-c3noc(=O)[nH]3)ccc21
2,< 50,O=c1[nH]c(-c2ccc3c(ccn3C3CCCC3)c2)no1
